# Experimental data as given in patent US20150322001A1, “OMEGA-3 ANALOGUES” (The University of Sydney, priority 2012, published 2015).
# Key:
# MDA-MB-231 cells [1] = assay: MTT assay, inhibition of proliferation of MDA-MB-231 cells; type: cell-based, human; conditions: MTT reduction, 24 h
# Method: The synthesized compounds given in Table 1 were tested for their activity in inhibiting the proliferation of MDA-MB-231 cells.
# • 1. Cell culture and cell treatment: Breast cancer MDA-MB-231 cells were maintained in monolayers at 37° C. in DMEM containing penicillin and streptomycin, L-glutamine and 10% fetal bovine serum in an atmosphere of 95% air and 5% CO2. Cells were seeded into multi-well plates at 5×10^4 cells/mL; media was replaced 24 h later with fresh serum-free DMEM containing one of the test compounds in DMSO. DMSO was added to control cells at a final concentration of 0.1%. • 2. MTT assay: MDA-MB-231 cells were seeded in 96 well plates (0.2 mL/well), treated with compounds at 0.01, 0.1, 0.5, 1, 5 and 10 μM for 24 h. MTT (25 μL of 2.5 mg/mL solution) was added to each well for 2 h, after which MTT and media were removed. The blue formazan product formed from MTT by live cells was dissolved in DMSO (100 μL/well) and quantified spectrophotometrically at 540 nm in a multilabel counter. IC50s were calculated using GraphPad Prism (Prism 5.01). • 3. Caspase 3 activity: MDA-MB-231 cells were seeded in 96 well plates (0.2 mL/well), and were treated with compounds at 0.1, 0.5 and 1 μM for 24 h. Caspase 3 activity was quantified using the Caspase-Glo 3/7 assay kit according to manufacturer's protocol (Promega). Briefly, after 24 h treatment, fresh serum-free media was added to wells. Cells were equilibrated at room temperature for 30 min, caspase 3/7 substrate in lysis buffer was added and the luminescence was measured. Relative caspase 3/7 activity was calculated as [(luminescence in treatment−luminescence in control)/luminescence in control×100%]. • 4. Annexin V assay: MDA-MB-231 cells were seeded in 6 well plates (3 mL/well), and were treated with compounds at 0.1, 0.5 and 1 μM for 24 h. The apoptotic cells were quantified by Annexin V staining according to the manufacture's protocol (BD Biosciences). Briefly, after 24 h treatment, the media and harvested cells were collected, followed by PBS washes. Cells were stained with Annexin V and PI in binding buffer for 15 min at room temperature and quantified by flow cytometry (BD Biosciences). The apoptotic cells (%) were calculated as [(Annexin V positive cells in treatment−Annexin V positive cells in control)/Annexin V positive cells in control×100%]. • 5. Matrigel assay: MDA-MB-231 cells were trypsinized and resuspended in serum-free DMEM media (3.5×10^6 cells/mL). The cell suspension was mixed 1:1 with Matrigel solution (Bio Scientific). Aliquots (20 μL containing 3.5×10^4 cells) were placed into 6-well tissue-culture dishes to form well-defined droplets and incubated at 37° C. for 5 min to enable semi-solidification. Migration media was freshly made as DMEM containing 20% fetal bovine serum, epidermal growth factor 10 pg/mL, hydrocortisone 0.4 ng/mL, vascular endothelial growth factor (VEGF, 1 pg/mL), basic fibroblast growth factor (bFGF, 20 pg/mL), insulin-like growth factor-1 (40 pg/mL), ascorbic acid (2 ng/mL) and heparin (45 ng/mL). Compounds were added in migration media (3 mL/well) and plates were then incubated for 24 h. Cells that migrated out of droplets were scored using phase-contrast microscopy and digital image analysis (Olympus). • 6. Real-time RT PCR: Cell droplets from migration assays were collected, and total RNA was extracted using Tri Reagent (Astral Scientific) according to the manufacturer's protocol. RNA samples were treated with DNase (Promega) and gene expression was quantified using an Express Onestep Superscript qRT-PCT kit (Invitrogen) and gene-specific primers: heparanase (forward) […] and (reverse) GCAGCAACTTTGGCATTTC, integrin-α3 (forward) […] and (reverse) […], actin (forward) […] and (reverse) […]. The cycling conditions (Roto-Gene™ 6000; Corbett Research) were as follows: 95° C. (15 min); 40 cycles of denaturation (95° C., 30 s); annealing (60° C., 1 min); elongation (72° C., 1 min). […]
# [2] = test system: MDA-MB-231 breast cancer cell xenografts; assay: In vivo evaluation of compound 15, MDA-MB-231 xenografts in nude mice; conditions: 10 mg/kg intraperitoneally, 39 days
# Method: One of the synthesised compounds given in Table 1 (compound 15, reproduced below) was tested for its activity in inhibiting the proliferation of MDA-MB-231 breast cancer cell xenografts in nude mice.
# female nu/nu Balb/c mice of 5-6 weeks age at the commencement of the experiment (one week acclimatization after arrival in the animal facility).
# two groups of 8 mice each.
# MDA-MB-231 cells, 4×10^5 cells/100 μL (Matrigel:phosphate-buffered saline, 1:1) per mouse; subcutaneous injection into the mammary pad.
# 4 days after cancer cell xenografting compound 15 was administered intraperitoneally at a dose of 10 mg/kg in corn oil (Sigma, containing 2% dimethylsulfoxide). Dosing continued for 6 days per week, for a total of 39 days. Control animals received 2% dimethylsulfoxide in corn oil, 100 μL per 20 g mouse for the same duration.
# Body weights were measured daily and tumour sizes every three days (with calipers).
# [3] = test system: human MDA-MB-231 breast cancer cell xenografts; assay: In vivo dose-response study of compound 29, MDA-MB-231 xenografts in nude mice; conditions: for toxicity of the treatment (growth rates): all dose groups
# Method: One of the synthesised compounds given in Table 1 (compound 29, reproduced below) was the subject of an in vivo dose-response study in nude mice with human MDA-MB-231 breast cancer cell xenografts. One group received compound 15 in parallel.
# nu/nu Balb/c; Age: 6 weeks at commencement of study; Gender: female
# control, compound 29 (2.5 mg/kg), compound 29 (10 mg/kg), compound 29 (40 mg/kg) and compound 15 (10 mg/kg); 5 mice/group
# human MDA-MB-231 cells, 4×10^5 cells/100 μl (Matrigel:PBS 1:1)/mouse, subcutaneous injection into the 4th mammary fat pad.
# after 4 days animals received compound 29 at 40, 10 and 2.5 mg/kg doses (in corn oil, Sigma, and 8% DMSO), or compound 15 at 10 mg/kg in corn oil at 4% DMSO, 6 days each week, for 38 days. Control: 8% DMSO in corn oil.
# weighed six days a week; tumour sizes measured with calipers every 3 to 4 days.
# MDA-MB-231 cells [4] = assay: Proapoptotic activity in MDA-MB-231 cells (JC-1 staining, confluence); type: cell-based, human
# Method: Several of the compounds were tested for the capacity to induce apoptosis in MDA-MB-231 cells (10 μM, 24 hr treatments). […] In view of the finding with compound 29 a concentration-relationship was developed with caspase-3/7 activity (an established marker of apoptosis) as the endpoint (FIG. 11).
Compound,IC50 (MDA-MB-231 cells [1]; Homo sapiens) [µM],other results
16-{[(4-methoxyphenyl)carbamoyl]amino}hexadecanoic acid [Compound 24],,IC50 (MDA-MB-231 cells [1]): 1.3 µM
CCOC(=O)CCCCCCCCCCCCCCCNC(=O)NC1CCCCC1 [Compound 1],0.85 ± 0.02,
"CCOC(=O)CCCCCCCCCCCCCCCNC(=O)NCCc1ccccc1 [Compound 2, Ethyl 16-{[(2-phenylethyl)carbamoyl]amino}hexadecanoate]",1.11 ± 0.26,
"O=C(O)CCCCCCCCCCCCCCCNC(=O)NCCc1ccccc1 [Compound 3, 16-{[(2-phenylethyl)carbamoyl]amino}hexadecanoic acid]",1.5 ± 0.08,
"CCOC(=O)CCCCCCCCCCCCCCCNC(=O)NC(C)(C)C [Compound 4, Ethyl 16-[(tert-butylcarbamoyl)amino]hexadecanoate]",6.92 ± 0.31,
"O=C(O)CCCCCCCCCCCCCCCNC(=O)NC1CCCCC1 [Compound 5, 16-[(cyclohexylcarbamoyl)amino]hexadecanoic acid]",2.78 ± 0.19,
"O=C(O)CCCCCCCCCCCCCCCNC(=O)Nc1ccccc1 [Compound 6, 16-[(phenylcarbamoyl)amino]hexadecanoic acid]",1.2,
"CC(C)(C)NC(=O)NCCCCCCCCCCCCCCCC(=O)O [Compound 7, 16-[(tert-butylcarbamoyl)amino]hexadecanoic acid]",1.22 ± 0.08,
"O=C(O)CCCCCCCCCCCCCCCNC(=O)NCc1ccccc1 [Compound 8, 16-[(benzylcarbamoyl)amino]hexadecanoic acid]",0.72 ± 0.01,
"CCOC(=O)CCCCCCCCCCCCCCCNC(=O)Nc1ccccc1 [Compound 9, Ethyl 16-[(phenylcarbamoyl)amino]hexadecanoate]",1.59 ± 0.28,
"CCOC(=O)CCCCCCCCCCCCCCCNC(=O)NCc1ccccc1 [Compound 10, Ethyl 16[(benzylcarbamoyl)amino]hexadecanoate]",0.87 ± 0.08,
"CCOC(=O)CCCCCCCCCCCCCCCNC(=O)Nc1ccc(F)cc1 [Compound 11, Ethyl 16-{[(4-fluorophenyl)carbamoyl]amino}hexadecanoate]",0.76 ± 0.07,
"O=C(O)CCCCCCCCCCCCCCCNC(=O)Nc1ccc(F)cc1 [Compound 12, 16-{[(4-fluorophenyl)carbamoyl]amino}hexadecanoic acid]",1,
"CCOC(=O)CCCCCCCCCCCCCCCNC(=O)Nc1ccc(Cl)cc1 [Compound 13, Ethyl 16-{[(4-chlorophenyl)carbamoyl]amino}hexadecanoate]",0.08 ± 0.01,
"O=C(O)CCCCCCCCCCCCCCCNC(=O)Nc1ccc(Cl)cc1 [Compound 14, 16-{[(4-chlorophenyl)carbamoyl]amino}hexadecanoic acid]",0.81,
"CCOC(=O)CCCCCCCCCCCCCCCNC(=O)Nc1ccc(C)cc1 [Compound 15, Ethyl 16-{[(4-methylphenyl)carbamoyl]amino}hexadecanoate]",0.02,"dose limiting toxicity ([2]; 6 days per week): no dose limiting toxicity; mouse body weight loss ([2]; 6 days per week, FIG. 4): greater with compound 15 than control; tumour metastasis [2]: appears to suppress tumour metastasis; primary tumour growth (growth rate and volume) ([2]; FIG. 5): did not prevent primary tumour growth; mice with white small foci in the abdominal cavity ([2]; controls 7/8): 1/8; toxicity of the treatment (growth rates) ([3]; 38 days): non-toxic; mouse body weight gain or loss ([3]; compound 15 10 mg/kg IP, 38 days, FIG. 8): lost weight at the early stage of IP injections"
"CCOC(=O)CCCCCCCCCCCCCCCNC(=O)NC12CC3CC(CC(C3)C1)C2 [Compound 17, Ethyl 16-[(tricyclo[3.3.1.1^3,7]dec-1-ylcarbamoyl)amino]hexadecanoate]",2.75 ± 0.27,
"CCNC(=O)NCCCCCCCCCCCCCCCC(=O)OCC [Compound 20, Ethyl 16-[(ethylcarbamoyl)amino]hexadecanoate]",0.66 ± 0.03,
"O=C(O)CCCCCCCCCCCCCCCNC(=O)Nc1ccc(I)cc1 [Compound 26, 16-{[(4-iodophenyl)carbamoyl]amino}hexadecanoic acid]",1,
"O=C(O)CCCCCCCCCCCCCCCNC(=O)Nc1ccc(Cl)c(Cl)c1 [Compound 28, 16-{[(3,4-dichlorophenyl)carbamoyl]amino}hexadecanoic acid]",1.2,
"O=C(O)CCCCCCCCCCCCCCCNC(=O)Nc1ccc(Cl)c(C(F)(F)F)c1 [Compound 29, 16-({[4-chloro-3-(trifluoromethyl)phenyl]carbamoyl)amino}hexadecanoic acid]",1.1,"JC-1 staining (mitochondrial damage) (MDA-MB-231 cells [4]; 10 μM, 24 hr, FIG. 10): Increased JC-1 staining; confluence of treated cells (MDA-MB-231 cells [4]; FIG. 12): decreased confluence; tumour growth rate and volume at later time points (after day 25) ([3]; 2.5 mg/kg, FIG. 9): larger than the compound 29 (40 mg/kg) group; tumour growth ([3]; 10 mg/kg, FIG. 9): decreased from day 32; tumour weights versus control and 2.5 mg/kg groups ([3]; 40 mg/kg, day 38): significantly smaller; tumour volumes versus control and 2.5 mg/kg groups ([3]; 40 mg/kg, day 38, FIG. 9): significantly smaller; toxicity of the treatment (growth rates) ([3]; 38 days): non-toxic; mouse body weight gain or loss ([3]; compound 29 2.5 mg/kg, 38 days, FIG. 7): gained weight at a steady and similar rate; mouse body weight gain or loss ([3]; compound 29 10 mg/kg, 38 days, FIG. 7): gained weight at a steady and similar rate; mouse body weight gain or loss ([3]; compound 29 40 mg/kg, 38 days, FIG. 7): gained weight at a steady and similar rate; tumour foci in the peritoneal cavity ([3]; compound 29-treated mice (2.5, 10, 40 mg/kg), 38 days): No tumour foci were seen"
